Results on 18 molecules are retold here after US20210300924A1, “5-[6-[[3-(4,5,6,7-TETRAHYDROPYRAZOLO[4,3-C]PYRIDIN-1-YL)AZETIDIN-1-YL]METHYL]MORPHOLIN-4-YL]QUINOLINE-8-CARBONITRILE DERIVATIVES AND SIMILAR COMPOUNDS AS TLR7-9 ANTAGONISTS FOR TREATING SYSTEMIC LUPUS ERYTHEMATOSUS” (Hoffmann-La Roche Inc., priority 2018, published 2021).

Marks after values point to notes of the source that are not given here.

The target in the first series is T1, TLR9 (Homo sapiens, UniProt Q9NR96).
T1 sequence (Q9NR96 26-1032): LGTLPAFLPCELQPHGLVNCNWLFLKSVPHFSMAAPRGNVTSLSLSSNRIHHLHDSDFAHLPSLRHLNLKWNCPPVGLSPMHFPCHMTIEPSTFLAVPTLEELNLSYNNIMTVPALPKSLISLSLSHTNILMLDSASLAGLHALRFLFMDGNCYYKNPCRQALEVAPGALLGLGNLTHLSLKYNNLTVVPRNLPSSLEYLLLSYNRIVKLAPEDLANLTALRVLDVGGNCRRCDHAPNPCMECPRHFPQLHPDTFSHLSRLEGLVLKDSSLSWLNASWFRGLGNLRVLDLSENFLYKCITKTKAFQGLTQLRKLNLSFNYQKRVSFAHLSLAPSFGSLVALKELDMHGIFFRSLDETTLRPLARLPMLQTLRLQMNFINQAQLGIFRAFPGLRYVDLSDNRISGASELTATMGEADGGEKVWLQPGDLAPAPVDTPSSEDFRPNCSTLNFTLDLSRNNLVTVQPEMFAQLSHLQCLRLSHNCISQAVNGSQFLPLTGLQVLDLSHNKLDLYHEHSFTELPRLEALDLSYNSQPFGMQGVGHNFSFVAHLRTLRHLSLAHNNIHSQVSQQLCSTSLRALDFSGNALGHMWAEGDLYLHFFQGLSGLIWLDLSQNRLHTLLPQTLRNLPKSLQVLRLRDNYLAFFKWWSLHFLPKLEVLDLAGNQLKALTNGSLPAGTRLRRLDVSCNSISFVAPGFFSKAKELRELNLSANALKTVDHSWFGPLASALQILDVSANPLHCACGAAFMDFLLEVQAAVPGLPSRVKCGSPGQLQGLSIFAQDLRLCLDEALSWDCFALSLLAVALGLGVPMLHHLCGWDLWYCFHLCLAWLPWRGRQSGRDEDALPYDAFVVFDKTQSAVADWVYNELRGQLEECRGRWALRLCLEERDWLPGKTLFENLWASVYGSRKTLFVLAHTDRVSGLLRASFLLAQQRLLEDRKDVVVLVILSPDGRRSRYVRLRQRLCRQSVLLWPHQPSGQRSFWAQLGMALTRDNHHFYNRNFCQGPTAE
The series is described as follows: Human PBMC cell-based assay. More on the design: endogenous in cells; host or cells: human PBMC from healthy donor whole blood. The conditions noted are these: CpG ODN 2216 stimulation, overnight, cytokine readout, read-out: hPBMC/TLR9 IC50. The text has this:
Human PBMC Cell-Based Assay
Unlike the HEK reporter cell lines, human peripheral blood mononuclear cell (PBMC) represents primary human immune cells in blood mainly consisting of lymphocytes, monocytes, and dendritic cells. These cells express TLR7, TLR8, or TLR9, and therefore are natural responders to respective ligand stimulation. Upon activation of these TLRs, PBMCs secrete similar cytokines and chemokines in vitro and in vivo, and therefore the in vitro potency of a TLR7/8/9 antagonist in human PBMC is readily translatable to its pharmacodynamics response in vivo.
Human peripheral blood mononuclear cells (PBMC) were isolated from freshly-drawn lithium-heparinized (Lithium Heparin Plus blood Collection tube, BD Vacutainer®) healthy donor whole blood by density gradient (Ficoll-Paque™ PLUS, GE Healthcare life Sciences). Briefly, […] was diluted with 25 mL PBS (without Ca^2+, Mg^2+) in a 50 mL conical tube with porous barrier (Leucosep tube, Greiner bio-one), where 15.5 mL Ficoll-Paque was under laid after spinning. Tubes were centrifuged for 20 minutes at 800×g (1946 rpm) with the brake in the off position, and PBMC were collected from the buffy coat. Cells were then washed twice in PBS, and red blood cells were lysed by suspension in 2 mL (Red Blood Cell Lysis Buffer, Alfa Aesar) for 5-10 minutes at room temperature. After a final wash in PBS, PBMC were resuspended at a final concentration of 2×10^6 cells/mL in RPMI-1640 media with GlutaMAX™ (Gibco) supplemented with 10% Fetal Bovine Serum (Sigma) and plated at 150 μL/well (3×10^5 cells/well) in tissue culture treated round bottom 96-well plates (Corning Incorporated). Antagonist compounds (compounds of this invention) solubilized and serial diluted in 100% DMSO were added in duplicate to cells to yield a final concentration of 1% DMSO (v/v). PBMC were incubated with antagonist compounds for 30 minutes at 37° C., 5% CO2 before adding various TLR agonist reagents in 48 μL complete media per well as follows (final concentrations indicated): CpG ODN 2216 (InvivoGen) at […] for TLR9, ORN 06/LyoVec (InvivoGen) at 1 μg/mL for TLR8 and R848 (InvivoGen) at 1 μg/mL for TLR7 and TLR8. PBMC were incubated overnight at 37° C. with 5% CO2. Cell culture supernatants were collected, and levels of various human cytokines were assessed by Luminex assay (ProcartaPlex™ Multiplex Immunoassay, Invitrogen) or ELISA procedure according to the manufacturer's recommended protocol (eBioscience, ThermoFisher Scientific). Viability of the cells was also checked with Cell Viability Assay (CellTiter Glo® Luminescent Cell Viability Assay, Promega).
Consider `C[C@@H]1CN(c2ccc(C#N)c3ncccc23)C[C@H](CN2CC(n3cc4c(n3)[C@H](C)CNC4)C2)O1` (single isomer, unassigned) [Example 25], for which the IC50 worked out at 346 nM. For `C[C@@H]1CN(c2ccc(C#N)c3ncccc23)C[C@H](CN2CC(n3ncc4c3CN[C@@H](C)C4)C2)O1` (single isomer, unassigned) [Example 27], the IC50 was determined as 81 nM. The same measure, in the same setting: to `C[C@@H]1CN(c2ccc(C#N)c3ncccc23)C[C@H](CN2CC(n3ncc4c3[C@@H](C)NCC4)C2)O1` (single isomer, unassigned) [Example 31] belongs 235 nM; to `C[C@@H]1CN(c2ccc(C#N)c3ncccc23)C[C@H](CN2CC(n3ncc4c3[C@H](C)NCC4)C2)O1` (single isomer, unassigned) [Example 32], 145 nM; to `C[C@@H]1CN(c2ccc(C#N)c3ncccc23)C[C@H](CN2CC(n3cc4c(n3)[C@@H](C)NCC4)C2)O1` (single isomer, unassigned) [Example 33], 72 nM.

On to `C[C@@H]1CN(c2ccc(C#N)c3ncccc23)C[C@H](CN2CC(n3ncc4c3CNCC4)C2)O1` [Example 3, 5-[(2R,6S)-2-methyl-6-[[3-(4,5,6,7-tetrahydropyrazolo[3,4-c]pyridin-1-yl)azetidin-1-yl]methyl]morpholin-4-yl]quinoline-8-carbonitrile], for which the IC50 is 118 nM.

With `CCN1CCc2cn(C3CN(C[C@H]4CN(c5ccc(C#N)c6ncccc56)C[C@@H](C)O4)C3)nc2C1` [Example 7, 5-[(2S,6R)-2-[[3-(6-ethyl-5,7-dihydro-4H-pyrazolo[3,4-c]pyridin-2-yl)azetidin-1-yl]methyl]-6-methyl-morpholin-4-yl]quinoline-8-carbonitrile], the IC50 was 195 nM. Same read-out and setting: to `Cc1nn(C2CN(C[C@H]3CN(c4ccc(C#N)c5ncccc45)C[C@@H](C)O3)C2)c2c1CNCC2` [Example 12, 5-[(2R,6S)-2-methyl-6-[[3-(3-methyl-4,5,6,7-tetrahydropyrazolo[4,3-c]pyridin-1-yl)azetidin-1-yl]methyl]morpholin-4-yl]quinoline-8-carbonitrile] belongs 92 nM; to `Cc1c2c(nn1C1CN(C[C@H]3CN(c4ccc(C#N)c5ncccc45)C[C@@H](C)O3)C1)CCNC2` [Example 13, 5-[(2R,6S)-2-methyl-6-[[3-(3-methyl-4,5,6,7-tetrahydropyrazolo[4,3-c]pyridin-2-yl)azetidin-1-yl]methyl]morpholin-4-yl]quinoline-8-carbonitrile], 119 nM; to `Cc1c2c(nn1C1CN(C[C@H]3CN(c4ccc(C#N)c5ncccc45)C[C@@H](C)O3)C1)CCN(C)C2` [Example 15, 5-[(2S,6R)-2-[[3-(3,5-dimethyl-6,7-dihydro-4H-pyrazolo[4,3-c]pyridin-2-yl)azetidin-1-yl]methyl]-6-methyl-morpholin-4-yl]quinoline-8-carbonitrile], 110 nM.

Test system in a further series: not listed separately
The series is described as follows: Human microsome stability assay. Format: in vitro ADME. The conditions noted are these: 1 μM test compound, 0.5 mg/mL liver microsomal protein, 37° C., up to 30 minutes; 6.2 = detection limit. As to the method:
Human Microsome Stability Assay
The human microsomal stability assay is used for early assessment of metabolic stability of a test compound in human liver microsomes.
Human liver microsomes (Cat. NO.: 452117, Corning, USA; Cat. NO.:H2610, Xenotech, USA) were preincubated with test compound for 10 minutes at 37° C. in 100 mM potassium phosphate buffer, pH 7.4. The reactions were initiated by adding NADPH regenerating system. The final incubation mixtures contained 1 μM test compound, 0.5 mg/mL liver microsomal protein, 1 mM MgCl2, 1 mM NADP, 1 unit/mL isocitric dehydrogenase and 6 mM isocitric acid in 100 mM potassium phosphate buffer, pH 7.4. After incubation times of 0, 3, 6, 9, 15 and 30 minutes at 37° C., 300 μL of cold acetonitrile (including internal standard) was added to 100 μL incubation mixture to terminate the reaction. Following precipitation and centrifugation, the amount of compound remaining in the samples were determined by LC-MS/MS. Controls of no NADPH regenerating system at zero and 30 minutes were also prepared and analyzed.
A general note: Liver microsomes are a subcellular fraction often used to study metabolism.
For `C[C@@H]1CN(c2ccc(C#N)c3ncccc23)C[C@H](CN2CC(n3ncc4c3CCNC4)C2)O1` [Example 1, 5-[(2R,6S)-2-methyl-6-[[3-(4,5,6,7-tetrahydropyrazolo[4,3-c]pyridin-1-yl)azetidin-1-yl]methyl]morpholin-4-yl]quinoline-8-carbonitrile], the “Clearance of Human microsome” value is 6.2* mL/min/kg.

With `C[C@@H]1CN(c2ccc(C#N)c3ncccc23)C[C@H](CN2CC(n3cc4c(n3)CCNC4)C2)O1` [Example 2, 5-[(2R,6S)-2-methyl-6-[[3-(4,5,6,7-tetrahydropyrazolo[4,3-c]pyridin-2-yl)azetidin-1-yl]methyl]morpholin-4-yl]quinoline-8-carbonitrile], the “Clearance of Human microsome” value is 6.2 mL/min/kg.

For `C[C@@H]1CN(c2ccc(C#N)c3ncccc23)C[C@H](CN2CC(n3cc4c(n3)CNC4)C2)O1` [Example 11, 5-[(2S,6R)-2-[[3-(5,6-dihydro-4H-pyrrolo[3,4-c]pyrazol-2-yl)azetidin-1-yl]methyl]-6-methyl-morpholin-4-yl]quinoline-8-carbonitrile], the “Clearance of Human microsome” value stood at 6.2 mL/min/kg.

Turning to `C[C@@H]1CN(c2ccc(C#N)c3ncccc23)C[C@H](CN2CC(n3ncc4c3C[C@H](C)NC4)C2)O1` [Example 18, 5-[(2R,6S)-2-methyl-6-[[3-[(6S)-6-methyl-4,5,6,7-tetrahydropyrazolo[4,3-c]pyridin-1-yl]azetidin-1-yl]methyl]morpholin-4-yl]quinoline-8-carbonitrile], the “Clearance of Human microsome” value is 7.0 mL/min/kg.

As for `C[C@@H]1CN(c2ccc(C#N)c3ncccc23)C[C@H](CN2CC(n3cc4c(n3)C[C@H](C)NC4)C2)O1` [Example 19, 5-[(2R,6S)-2-methyl-6-[[3-[(6S)-6-methyl-4,5,6,7-tetrahydropyrazolo[4,3-c]pyridin-2-yl]azetidin-1-yl]methyl]morpholin-4-yl]quinoline-8-carbonitrile], the “Clearance of Human microsome” value turned out to be 6.2 mL/min/kg. Turning to `C[C@@H]1CN(c2ccc(C#N)c3ncccc23)C[C@H](CN2CC(n3ncc4c3CCN[C@H]4C)C2)O1` [Example 22, 5-[(2R,6S)-2-methyl-6-[[3-[(4S)-4-methyl-4,5,6,7-tetrahydropyrazolo[4,3-c]pyridin-1-yl]azetidin-1-yl]methyl]morpholin-4-yl]quinoline-8-carbonitrile], the “Clearance of Human microsome” value amounted to 6.2 mL/min/kg.

Turning to `C[C@@H]1CN(c2ccc(C#N)c3ncccc23)C[C@H](CN2CCC(n3ncc4c3CCNC4)CC2)O1` [Example 35, 5-[(2R,6S)-2-methyl-6-[[4-(4,5,6,7-tetrahydropyrazolo[4,3-c]pyridin-1-yl)-1-piperidyl]methyl]morpholin-4-yl]quinoline-8-carbonitrile], the “Clearance of Human microsome” value was 7.7 mL/min/kg. `C[C@@H]1CN(c2ccc(C#N)c3ncccc23)C[C@H](CN2CCC(n3cc4c(n3)CCNC4)CC2)O1` [Example 36, 5-[(2R,6S)-2-methyl-6-[[4-(4,5,6,7-tetrahydropyrazolo[4,3-c]pyridin-2-yl)-1-piperidyl]methyl]morpholin-4-yl]quinoline-8-carbonitrile]: the “Clearance of Human microsome” value stood at 6.2 mL/min/kg.
